These results are taken from PMC9267128, “New 2-[(4-Amino-6-N-substituted-1,3,5-triazin-2-yl)methylthio]-N-(imidazolidin-2-ylidene)-4-chloro-5-methylbenzenesulfonamide Derivatives, Design, Synthesis and Anticancer Evaluation” (International Journal of Molecular Sciences, 2022).

Assay [1] has as its system T47D (breast cancer cell line). Put plainly: MTT assay, mutant p53 breast cancer cells T47D. In kind it is cell-based. The note with it: Homo sapiens, T47D, 72 h of incubation. Here is the method:
(§1) Thus, the ability of the selected compounds to exert cytotoxic activity toward cell lines harboring mutant p53 was examined. Compounds displaying a high selectivity index (Table 6) were selected for the analysis of their activity toward ovarian and breast cancer cells with wild-type p53 (A2780, MCF-7) and mutant p53 (SKOV-3, T47D).
(§2) Cell viability was examined using the MTT [3-(4,5-dimethylthiazol-2-yl)-2,5-diphenyltetrazolium bromide] assay. Cells were seeded in 96-well plates at a density of 3 × 10^3 cells/well and treated for 72 h with the tested compounds in the concentration range of 1–100 µM. Then, MTT (0.5 mg/mL) was added to the medium and cells were further incubated for 2 h at 37 °C. In the next stage, cells were lysed with DMSO and the absorbance of the formazan solution was measured at 550 nm with a plate reader (1420 multilabel counter, Victor, Jügesheim, Germany). The experiment was performed in triplicate. Values are expressed as the mean ± SD of at least three independent experiments. Cisplatin was used as a positive control.
(§3) Compounds 48, 62, 134, 138 and 140 were further examined toward MCF7 (breast cancer cell line, ATCC, HTB-22), T47D (breast cancer cell line, DSMZ ACC 739), A2780 (ovarian carcinoma cell line, ECACC, 93112519), and SKOV3 (ovarian carcinoma cell line, ATCC, HTB-77) cells. Cells were grown in Dulbecco’s Modified Eagle Medium (DMEM) supplemented with 10% fetal bovine serum (Thermo Fisher Scientific).

In a further assay the test system is HeLa (cervical cancer). The assay can be described thus: MTT cell viability assay, HeLa. In kind it is cell-based, human. Particulars: for IC50: Homo sapiens, HeLa, MTT assay, 72 h of incubation; for Selectivity Index (SI) HeLa: IC50 value toward HaCaT cells/IC50 value toward HeLa. The essentials:
(§4)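 HCT-116 and HeLa cells in DMEM/10% FBS exposed 72 h to compounds over 1–100 µM. Viability by MTT (0.5 mg/mL, 2 h, 37 °C), formazan dissolved in DMSO and read at 550 nm; mean ± SD of at least three independent experiments.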

For a further assay, the system named is HCT-116 (colon cancer). The assay can be described thus: MTT cell viability assay, HCT-116. The assay is classed as cell-based, human. Particulars: for IC50: Homo sapiens, HCT-116, 72 h, MTT assay, 72 h of incubation; for Selectivity Index (SI) HCT-116: IC50 value toward HaCaT cells/IC50 value toward HCT-116. In short, it runs like this:
as §4

Assay [2] deals with MCF7 (breast cancer cell line, ATCC, HTB-22). Put plainly: MTT assay, wild-type p53 breast cancer cells MCF-7 (Table 11). The assay is classed as cell-based, human. Particulars: Homo sapiens, MCF7; 72 h of incubation, wild-type p53, second determination. Here is the method: as §1, §2, §3
In general terms: Formazan colour is commonly taken as a measure of viable cells.

The subject of assay [3] is SKOV3 (ovarian carcinoma cell line). The assay can be described thus: MTT assay, mutant p53 ovarian cancer cells SKOV-3. In kind it is cell-based. The note with it: Homo sapiens, SK-OV-3, 72 h of incubation. As to the method: as §1, §2, §3
The subject of another assay is MDM2-p53 interactions. The assay can be described thus: Western blot of MDM2 and p53 protein levels in MCF-7 cells. In kind it is cell-based, human. Particulars: 4 µM and 10 µM, 24-h incubation. As to the method: Thus, the effects of the examined compounds on the inhibition of MDM2-p53 interactions were examined. MDM2 and p53 protein levels were determined with Western blot analysis after the treatment of MCF-7 cells with compounds selected for their high selectivity index (48, 62, 134, 138, and 140). Compounds were examined at different concentrations (4 µM and 10 µM) following a 24-h incubation (Figure 7).
Proteins were transferred to an Immobilon-P PVDF membrane (Merck Millipore, Burlington, MA, USA). The membranes were incubated for 1 h using 5% low-fat milk solution in 1× TBS (50 mM Tris-Cl, pH 7.5, 150 mM NaCl) as a blocking buffer and then overnight at 4 °C in the same blocking solution containing one of the following antibodies: anti-MDM2 (rabbit, Sigma-Aldrich AB-166, Burlington, MA, USA), anti-p53 (rabbit, Sigma-Aldrich S15) or α-tubulin (rabbit, 11H10, Cell Signaling, Danvers, MA, USA). After washing (3 × 10 min in TBS), membranes were incubated for 2 h in room temperature with the adequate HRP-conjugated secondary antibody: goat anti-rabbit IgG (1:5000, Abcam, Cambridge, UK; cat. 97051). Membranes were developed using an HRP detection kit WesternBright Quantum (Advansta, San Jose, CA, USA; cat. K-12042).

In assay [4] the test system is HaCaT (human keratinocyte cell line). The assay can be described thus: MTT cell viability assay, non-cancerous HaCaT. In kind it is cell-based. The note with it: Homo sapiens, HaCaT, 72 h, 72 h of incubation, non-cancerous keratinocytes. In short, it runs like this:
(§5)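 Cells in DMEM with 10% FBS, 3 × 10^3 per well, exposed to compounds at 1–100 µM for 72 h at 37 °C. MTT at 0.5 mg/mL for 2 h, formazan dissolved in DMSO and read at 550 nm. Mean ± SD of at least three independent experiments, each in triplicate.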

In a further assay the test system is MCF-7 (breast cancer). Put plainly: MTT cell viability assay, MCF-7. The assay is classed as cell-based, human. The note with it: for IC50: Homo sapiens, MCF7, 72 h, MTT assay, 72 h of incubation; for Selectivity Index (SI) MCF-7: IC50 value toward HaCaT cells/IC50 value toward MCF-7. The essentials:
as §5

Assay [5] has as its system A2780 (ovarian carcinoma cell line). The assay can be described thus: MTT assay, wild-type p53 ovarian cancer cells A2780. The note with it: Homo sapiens, A2780, 72 h of incubation. In kind it is cell-based. Here is the method:
as §1, §2, §3

Turning to `Cc1cc(S(=O)(=O)N=C2NCCN2Cc2ccc(C(F)(F)F)cc2)c(SCc2nc(N)nc(N3CCN(c4ccc(Cl)c(Cl)c4)CC3)n2)cc1Cl` [Compound 138], the IC50 in assay [1] was found to be 4.4 ± 0.1 µM; in the assay with HeLa (cervical cancer) it was 9 ± 0.6 µM; in the assay with HCT-116 (colon cancer), 6 ± 0.2 µM; in assay [2] it was 8.2 ± 0.1 µM; in [3], 5.8 ± 0.1 µM; in assay [4], 22 ± 1 µM. Also, the IC50 with MCF-7 (breast cancer) worked out at 9 ± 0.5 µM; in assay [5], 2.2 ± 0.1 µM. For the same compound, in the assay with MDM2-p53 interactions, the “MDM2 and p53 protein levels” value was “no changes”.

Take `Cc1cc(S(=O)(=O)N=C2NCCN2Cc2ccccc2)c(SCc2nc(N)nc(N3CCN(c4ccc(Cl)cc4)CC3)n2)cc1Cl` [Compound 62]: the IC50 in assay [1] is 4.9 ± 0.1 µM; in the assay on HeLa (cervical cancer), 107 ± 1 µM; in the assay with HCT-116 (colon cancer) it was 6 ± 0.1 µM; in assay [2], 10.4 ± 0.1 µM; in assay [3], 10.1 ± 0.1 µM; in assay [4], 32 ± 1 µM. The half-maximal inhibitory concentration (IC50) is 7 ± 0.1 µM in the assay on MCF-7 (breast cancer) and 3.9 ± 0.1 µM in assay [5]. Also, the “Selectivity Index (SI) HeLa” value in the assay on HeLa (cervical cancer) worked out at 0.3. The “Selectivity Index (SI) HCT-116” value in the assay with HCT-116 (colon cancer) is listed as 5.3. Further, the “MDM2 and p53 protein levels” value in the assay on MDM2-p53 interactions is reported as “no changes”. Further, the “Selectivity Index (SI) MCF-7” value with MCF-7 (breast cancer) was 4.5.

For the compound `Cc1cc(S(=O)(=O)N=C2NCCN2Cc2ccc(C(F)(F)F)cc2)c(SCc2nc(N)nc(N3CCN(c4ccc(C(F)(F)F)cc4)CC3)n2)cc1Cl` [Compound 134], the IC50 in assay [1] worked out at 3.2 ± 0.1 µM; in the assay with HeLa (cervical cancer), 10 ± 0.6 µM; in the assay with HCT-116 (colon cancer), 5 ± 0.2 µM; in assay [2], 7.8 ± 0.1 µM; in assay [3], 5.7 ± 0.1 µM; in assay [4], 22 ± 1 µM. For the same compound, the IC50 was 11 ± 0.1 µM in the assay with MCF-7 (breast cancer) and 3.9 ± 0.1 µM in assay [5]. Besides, the “Selectivity Index (SI) HeLa” value in the assay with HeLa (cervical cancer) is 2.2. Further, in the assay on HCT-116 (colon cancer), the “Selectivity Index (SI) HCT-116” value was determined as 4.4. Moreover, the “MDM2 and p53 protein levels” value in the assay with MDM2-p53 interactions is recorded as “no changes”. Further, the “Selectivity Index (SI) MCF-7” value with MCF-7 (breast cancer) was determined as 2.0.

What is called IC50 is the concentration that gives 50% inhibition. High values mean a need for much substance, low ones inhibition by little substance.
